This is an account of results in US20230218710A1, “METHOD OF TREATING CORONAVIRUS INFECTIONS” (priority 2020, published 2023).

The target of series [1] is T1, Apelin Receptor (APJ) (Homo sapiens, UniProt P35414).
T1 construct: host or cells: CHO-K1 AGTRL1 Gi cells
T1 sequence (P35414 1-380): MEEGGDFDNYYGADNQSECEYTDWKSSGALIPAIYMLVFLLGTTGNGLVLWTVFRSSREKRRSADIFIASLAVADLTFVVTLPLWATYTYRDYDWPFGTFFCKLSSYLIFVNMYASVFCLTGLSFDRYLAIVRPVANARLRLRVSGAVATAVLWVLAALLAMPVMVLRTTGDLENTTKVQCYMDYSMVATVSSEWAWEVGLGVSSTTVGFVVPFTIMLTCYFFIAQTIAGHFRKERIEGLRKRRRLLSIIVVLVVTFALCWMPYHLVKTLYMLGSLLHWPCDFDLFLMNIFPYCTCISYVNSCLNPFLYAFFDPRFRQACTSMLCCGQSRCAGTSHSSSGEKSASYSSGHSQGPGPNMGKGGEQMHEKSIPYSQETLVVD
As to the kind of experiment: Activation of Ras in cultured cells overexpressing APJ. In kind it is cell-based. As to conditions: 50 μM peptide, 1 min; 100 nM Pyr-Apelin-13 = positive control. Here is the method: Peptides were initially prepared as 100× stocks in H2O. […] Following a 1 min incubation, the cells were placed on ice, the supernatant was removed, and washed twice with cold HBSS. The HBSS was removed and the cells were immediately lysed in 150 μl/well of lysis buffer included with Active Ras Detection kit (Cell Signaling Technology; Danvers, Mass.); lysis buffer was supplemented with 1 mM PMSF (Millipore-Sigma; Saint Louis, Mo.) and Halt Protease/Phosphatase Inhibitor Cocktail (Thermo-Fisher; Waltham, Mass.) prior to use. The wells were immediately scraped and lysates transferred to microfuge tubes. The samples were then placed on ice for 10 min. […] Visualization and quantification of Ras recovery (GTP-bound/active Ras) in samples were performed with Azure Biosystems C400 Imager and AzureSpot analysis software (Dublin, Calif.). […] Each data point represents the average of duplicate assays.

Series [2] concerns the target T1, Apelin Receptor (APJ). As to the kind of experiment: Phosphorylation of ERK1/2 in cultured cells overexpressing APJ. In kind it is cell-based. As to conditions: 5 min, 100 nM Pyr-Apelin-13 = positive control, acetate salts. As to the method:
The effect of the peptides of the current invention on activation of Apelin Receptor (APJ)-mediated signaling can be assessed using an assay to monitor phospho-ERK/phospho-p44/42 MAPK (p-ERK1/2) levels in cultured cells overexpressing Apelin Receptor (APJ) such as CHO-K1, derived from Chinese hamster ovary. Peptides were initially prepared as 100× stocks in H2O. […] Following a 5 min incubation the supernatant was removed and the cells were placed on ice and washed twice with cold HBSS. The HBSS was removed and the cells were immediately lysed in 300 μl/well of 1× lysis buffer (CST 10× Lysis Buffer; Cell Signaling Technology; Danvers, Mass.); lysis buffer was supplemented with 1 mM PMSF (Millipore-Sigma; Saint Louis, Mo.) and Halt Protease/Phosphatase Inhibitor Cocktail (Thermo-Fisher; Waltham, Mass.) prior to use. The samples were then placed on ice for 10 min, wells were scraped and lysates transferred to microfuge tubes. The samples were centrifuged at 12,500 rpm for 10 min at 4° C. and p-ERK1/2 expression in each sample was measured using Phospho-p44/42 MAPK (Thr202/Tyr204) Sandwich ELISA kit according to manufacturer's instructions (Cell Signaling Technology; Danvers, Mass.). Absorbance was measured using a Cytation 3 plate reader at […] (BioTek; Winooski, Vt.). […] Each data point represents the average of duplicate assays.

Series [3] addresses T1, Apelin Receptor (APJ). As to the kind of experiment: Phosphorylation of MEK1 in cultured cells overexpressing APJ. As to conditions: 5 min, 100 nM Pyr-Apelin-13 = positive control, acetate salts. Type of series: cell-based. As to the method:
Peptides were initially prepared as 100× stocks in H2O. […] Following a 5 min incubation, the supernatant was removed and the cells were placed on ice and washed twice with cold HBSS. The HBSS was removed and the cells were immediately lysed in 300 μl/well of 1× lysis buffer (CST 10× Lysis Buffer; Cell Signaling Technology; Danvers, Mass.); lysis buffer was supplemented with 1 mM PMSF (Millipore-Sigma; Saint Louis, Mo.) and Halt Protease/Phosphatase Inhibitor Cocktail (Thermo-Fisher; Waltham, Mass.) prior to use. The samples were then placed on ice for 10 min, the wells were scraped and lysates were centrifuged at 12,500 rpm for 10 min at 4° C., and p-MEK expression in each sample was measured using Phospho-MEK1 (Ser217/221) Sandwich ELISA kit according to manufacturer's instructions (Cell Signaling Technology; Danvers, Mass.). Absorbance was measured using a Cytation 3 plate reader at […] (BioTek; Winooski, Vt.). […] Each data point represents the average of duplicate assays.

Series [4] deals with T1, Apelin Receptor (APJ). Description: cell-based. As to conditions: CHO-K1, 0.5 h, read-out: Percent of Pyr-Apelin-13 Control Activity. Here is the method:
Peptides were initially prepared as 30 mM stock in DMSO and diluted to 3 mM in H2O or directly as 3 mM stock in H2O; used at a final concentration of 10 μM (0-0.1% DMSO).

A short description of series [5]: in vitro. As to conditions: human, pooled human plasma.
Protocol: The metabolic stability of the peptides can be assessed in vitro by incubation in plasma and determination of the amount of peptide remaining over time. Peptides (50 μM) were incubated in pooled plasma from mice, monkeys, and humans at 37° C. Samples were removed at intervals up to 3 hours and immediately analyzed for the concentration of intact peptide by LC/MS/MS. The percent of peptide remaining in plasma at each time point was calculated relative to the initial peak area.
Series [6] has as its target human APJ (Homo sapiens, UniProt P35414). Description: cell-based. The conditions noted are these: CHO-K1, 1.5 h, read-out: Percent of Apelin-13 Control Activity. Here is the method:
The effect of the peptides on activation of Apelin Receptor (APJ) can be assessed using an assay to monitor β-Arrestin recruitment in cultured cells overexpressing APJ such as CHO-K1, derived from Chinese hamster ovary. β-Arrestin recruitment assays were performed by Eurofins-DiscoverX (Fremont, Calif.) using CHO-K1 AGTRL1 β-Arrestin cell line (co-expressing ProLink tagged human APJ and Enzyme Acceptor tagged β-Arrestin) and PathHunter detection kit. Peptides were initially prepared either as 10 mM stock in DMSO and used at a final concentration of 10 μM (0.1% DMSO). CHO-K1 AGTRL1 β-Arrestin cells were seed onto 384-well plates in standard medium. […] Following 90 min. incubation at 37° C., β-Arrestin recruitment in response to various treatments was quantified using a chemiluminescent complementation reporter assay to measure association of tagged human APJ (ProLink tag) and tagged β-Arrestin (Enzyme Acceptor tag).

Counter-ions that a name gives are not always drawn. Square brackets hold non-standard residues; d marks the D form. Peptide text beside a SMILES is read from it. * marks the point of attachment. CH3O(CH2CH2O)11CH2CH2CO = COCCOCCOCCOCCOCCOCCOCCOCCOCCOCCOCCOCCC(=O)*

Sequence of human APJ (P32121 whole entry partner, one chain of several): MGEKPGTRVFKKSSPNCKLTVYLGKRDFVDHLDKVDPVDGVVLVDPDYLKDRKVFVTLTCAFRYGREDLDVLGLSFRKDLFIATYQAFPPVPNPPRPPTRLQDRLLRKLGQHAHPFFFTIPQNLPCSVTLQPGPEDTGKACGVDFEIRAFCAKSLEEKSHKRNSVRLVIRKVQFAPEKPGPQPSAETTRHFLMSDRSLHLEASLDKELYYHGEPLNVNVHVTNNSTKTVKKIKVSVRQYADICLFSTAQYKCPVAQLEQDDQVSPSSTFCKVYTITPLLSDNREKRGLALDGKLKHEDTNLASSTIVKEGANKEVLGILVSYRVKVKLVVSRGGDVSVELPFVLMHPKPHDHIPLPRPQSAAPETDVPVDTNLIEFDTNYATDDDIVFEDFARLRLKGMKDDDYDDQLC

Turning to `CSCC[C@H](NC(=O)CNC(=O)[C@H](CCSC)NC(=O)[C@H](CCSC)NC(=O)[C@H](CCCNC(=N)N)NC(=O)[C@@H](N)CCCNC(=N)N)C(=O)N[C@H](C(=O)N[C@@H](Cc1ccccc1)C(=O)N[C@@H](CCC(N)=O)C(=O)N[C@@H](CO)C(=O)N[C@@H](CC(C)C)C(=O)N[C@@H](CS)C(=O)NCC(=O)N[C@H](C)C(=O)O)C(C)C` [SEQ ID NO: 15 Acetate salt], the “GTP-Ras (% of Positive Control)” value in series [1] is 64.9%.
Same read-out and setting: under `CSCC[C@H](NC(=O)CNC(=O)[C@H](CCSC)NC(=O)[C@H](CCSC)NC(=O)[C@H](CCCNC(=N)N)NC(=O)[C@@H](N)CCCNC(=N)N)C(=O)N[C@H](C(=O)N[C@@H](Cc1ccccc1)C(=O)N[C@@H](CCC(N)=O)C(=O)N[C@@H](CO)C(=O)N[C@@H](CC(C)C)C(=O)N[C@@H](CS)C(=O)NCC(=O)N[C@H](C)C(=O)O)C(C)C` [SEQ ID NO: 15 HCl salt] stands 90.8%.
Regarding `CSCC[C@H](NC(=O)CNC(=O)[C@H](CCSC)NC(=O)[C@H](CCSC)NC(=O)[C@H](CCCNC(=N)N)NC(=O)[C@@H](N)CCCNC(=N)N)C(=O)N[C@H](C(=O)N[C@@H](Cc1ccccc1)C(=O)N[C@@H](CCC(N)=O)C(=O)N[C@@H](CO)C(=O)N[C@@H](CC(C)C)C(=O)N[C@@H](CS)C(=O)NCC(=O)N[C@H](C)C(=O)O)C(C)C` [SEQ ID NO: 15], the “pERK1/2 (% of Positive Control)” value in series [2] (0.4 μM peptide) is reported as 1.9%; in series [2] (2.0 μM peptide) it was 15.4%; in series [2] (10 μM peptide) it was 44.4%; in series [2] (50 μM peptide) it was 69.7%. The “pMEK1 (% of Positive Control)” value stood at 2.5% in series [3] (2.0 μM peptide), 14.3% in series [3] (10 μM peptide) and 52.7% in series [3] (50 μM peptide).
`CSCC[C@H](NC(=O)CNC(=O)[C@H](CCSC)NC(=O)[C@H](CCSC)NC(=O)[C@H](CCCNC(=N)N)NC(=O)[C@@H](N)CCCNC(=N)N)C(=O)N[C@H](C(=O)N[C@@H](C)C(=O)N[C@@H](CCC(N)=O)C(=O)N[C@@H](CS)C(=O)N[C@@H](CC(C)C)C(=O)N[C@@H](CS)C(=O)NCC(=O)N[C@H](C)C(=O)O)C(C)C` [compound 11]: the Emax at 10 µM in series [4] was 49%; in series [6], 0%. Moreover, in series [5], the fraction remaining at 0.5 h, 50 μM amounted to 97.9%.
Take `CSCC[C@H](NC(=O)CNC(=O)[C@H](CCSC)NC(=O)[C@H](CCSC)NC(=O)[C@H](CCCNC(=N)N)NC(=O)[C@@H](N)CCCNC(=N)N)C(=O)N[C@H](C(=O)N[C@@H](Cc1ccccc1)C(=O)N[C@@H](CCC(N)=O)C(=O)N[C@@H](CO)C(=O)N[C@@H](CC(C)C)C(=O)N[C@@H](CS)C(=O)NCC(=O)N[C@H](C)C(=O)O)C(C)C` [compound 15]: the Emax at 10 µM in series [4] is 105%; in series [6], 40%. The share remaining at 0.5 h, 50 μM in series [5] is 24.3%.
For `COCCOCCOCCOCCOCCOCCOCCOCCOCCOCCOCCOCCC(=O)N[C@@H](CCCCN)C(=O)N[C@@H](CCCNC(=N)N)C(=O)N[C@@H](CCCNC(=N)N)C(=O)N[C@@H](CCSC)C(=O)N[C@@H](CCSC)C(=O)NCC(=O)N[C@@H](CCSC)C(=O)N[C@H](C(=O)N[C@@H](Cc1ccccc1)C(=O)N[C@@H](CCC(N)=O)C(=O)N[C@@H](CS)C(=O)N[C@@H](CC(C)C)C(=O)N[C@@H](CS)C(=O)NCC(=O)N[C@H](C)C(=O)O)C(C)C` [compound 20], the Emax at 10 µM was determined as 37% in series [4] and 1% in series [6]. Besides, the amount remaining at 0.5 h, 50 μM in series [5] was 75.3%.
For `COCCOCCOCCOCCOCCOCCOCCOCCOCCOCCOCCOCCC(=O)NCCCC[C@H](NC(=O)[C@@H](C)NC(=O)CNC(=O)[C@H](CS)NC(=O)[C@H](CC(C)C)NC(=O)[C@H](CS)NC(=O)[C@H](CCC(N)=O)NC(=O)[C@H](Cc1ccccc1)NC(=O)[C@@H](NC(=O)[C@H](CCSC)NC(=O)CNC(=O)[C@H](CCSC)NC(=O)[C@H](CCSC)NC(=O)[C@H](CCCNC(=N)N)NC(=O)[C@@H](N)CCCNC(=N)N)C(C)C)C(=O)O` [compound 21], the Emax at 10 µM was 34% in series [4] and 1% in series [6]. The amount remaining at 0.5 h, 50 μM in series [5] is 29.5%.
Turning to `CSCC[C@H](NC(=O)CNC(=O)[C@H](CCSC)NC(=O)[C@H](CCSC)NC(=O)[C@H](CCCNC(=N)N)NC(=O)[C@@H](N)CCCNC(=N)N)C(=O)N[C@H](C(=O)N[C@@H](C)C(=O)N[C@@H](CCC(N)=O)C(=O)N[C@@H](CS)C(=O)N[C@@H](CC(C)C)C(=O)N[C@@H](CCC(=O)O)C(=O)NCC(=O)N[C@H](C)C(=O)O)C(C)C` [compound 30] (H-RRMMGMVAQCLEG[dA]-OH; N-terminus and C-terminus assumed), the Emax at 10 µM in series [4] is 31%; in series [6] it was -1%. Further, in series [5], the fraction remaining at 0.5 h, 50 μM amounted to 14.9%.
Take `CSCC[C@H](NC(=O)[C@H](CCCNC(=N)N)NC(=O)[C@@H](N)CCCNC(=N)N)C(=O)N[C@@H](CCC(=O)O)C(=O)N[C@H](C(=O)N[C@@H](Cc1ccc(O)cc1)C(=O)N[C@@H](CCC(N)=O)C(=O)N[C@@H](CS)C(=O)N[C@@H](CC(C)C)C(=O)N[C@@H](CS)C(=O)NCC(=O)N[C@H](C)C(=O)O)C(C)C` [compound 31] (H-RRMEVYQCLCG[dA]-OH; N-terminus and C-terminus assumed): the figures for the Emax at 10 µM in series [4] and in series [6] were 2% and 0%, respectively. For the same compound, in series [5], the amount remaining at 0.5 h, 50 μM is 100%.
`CC[C@H](C)[C@H](NC(=O)CNC(=O)[C@@H](NC(=O)[C@@H](NC(=O)[C@H](CCCNC(=N)N)NC(=O)[C@H](CCCNC(=N)N)NC(=O)[C@H](CCCCN)NC(=O)CCOCCOCCOCCOCCOCCOCCOCCOCCOCCOCCOCCOC)[C@@H](C)CC)[C@@H](C)CC)C(=O)N[C@H](C(=O)N[C@@H](Cc1ccccc1)C(=O)N[C@@H](CCC(N)=O)C(=O)N[C@@H](CS)C(=O)N[C@@H](CC(C)C)C(=O)N[C@@H](CS)C(=O)NCC(=O)N[C@H](C)C(=O)O)C(C)C` [compound 42] ({CH3O(CH2CH2O)11CH2CH2CO}-KRRIIGIVFQCLCG[dA]-OH; N-terminus and C-terminus assumed): the Emax at 10 µM was 33% in series [4] and 8% in series [6].

For orientation: share remaining means what is left of the initial amount, in per cent. Higher therefore signals less turnover.
